In patent US11633484B2, “Method for improving the oral bioavailability of a drug” (PharmaCytics B.V., priority 2017, dated 2023):

How the values were obtained:
xenograft mouse model = conditions: oral administration; cited from earlier work
[1] = oral administration, rat; cited from earlier work
[2] = Determination of oral bioavailability of Abiraterone conjugates (plasma AUClast after oral gavage); assay type: in vivo; parameters: key to AUClast (total amount abiraterone and conjugate): AUClast value for Zytiga; +: 1.1-6-fold increase compared to Zytiga; ++: >7-fold increase compared to Zytiga; conditions: female Beagle dogs; for AUClast (total amount abiraterone and conjugate): single dose 15 μmole/kg by oral gavage, 24 h, fold increase compared to Zytiga; for Conversion rate to Abiraterone: AUClast Abiraterone/AUClast conjugate + AUClast Abiraterone × 100%, oral 15 μmole/kg
Method: (§1) Relative and absolute bioavailability may be determined in different animal models and according to different protocols. The following protocol is typical for determining bioavailability in female Beagle dogs. The animals were deprived from food over a time period of 8 h prior to administration and 2 h after administration of the test molecules. Water was supplied without limitation.
(§2) On the study day, the animals received test molecules, at a single dose of 15 μmole/kg, by oral gavage, formulated in mixtures of propylene glycol, ethanol and 0.9% NaCl+5% mannitol in water. Blood samples were collected from the jugular vein on the following time points: 0.25, 0.5, 1, 2, 4, 8 and 24 hours after dosing.
(§3) Pharmacokinetic parameters were calculated from concentration versus time data using non-compartmental pharmacokinetic methods using Phoenix pharmacokinetic software. Data are compared to Zytiga to establish improvement of its oral bioavailability by the Abiraterone conjugates.

β-glucosidase = assay: Enzymatic removal of the glucose moiety (treatment with β-glucosidase), conversion to parent drug
[3] = Determination of oral bioavailability of Kalydeco conjugates; assay type: in vivo, Beagle dogs; parameters: key to AUClast (total amount Kalydeco and conjugate): AUClast value for Kalydeco; +: 1.1-6-fold increase compared to Kalydeco; conditions: for AUClast (total amount Kalydeco and conjugate): as Example 11 (Beagle dogs, oral gavage), fold increase compared to Kalydeco
Method: as §1, §2, §3
In a similar fashion as described in Example 11, the bioavailability increase of Kalydeco conjugate 17 was determined.

[4] = Determination of oral bioavailability of Rotigotine conjugate; assay type: in vivo, Beagle dogs; parameters: key to AUClast (total amount Rotigotine and conjugate): AUClast value for Rotigotine; ++: >6-fold increase compared to Rotigotine; conditions: for AUClast (total amount Rotigotine and conjugate): as Example 11 (Beagle dogs, oral gavage), fold increase compared to Rotigotine
Method: as §1, §2, §3
In a similar fashion as described in Example 11, the bioavailability increase of Rotigotine conjugate 28 was determined.

[5] = orally administered; cited from earlier work
[6] = oral application in rat; cited from earlier work

| Structure (SMILES) | AUClast (total amount abiraterone and conjugate) [2] | Conversion rate to Abiraterone [2] | other results |
| --- | --- | --- | --- |
| COc1cc(C)c2cc(O[C@@H]3O[C@H](CO)[C@@H](O)[C@H](O)[C@H]3O)c(C)cc2c1C(C)C | – | – | Reduction of tumor volume (xenograft mouse model): 50% |
| CO[C@@H]1O[C@H](COC(=O)NC(N)=NC(=O)Cc2c(Cl)cccc2Cl)[C@@H](O)[C@H](O)[C@H]1O | – | – | Relative Cmax compared to guanfacine [1]: lower value |
| CC(=O)O[C@H]1CC[C@@]2(C)C(=CC[C@@H]3[C@@H]2CC[C@]2(C)C(c4cccnc4)=CC[C@@H]32)C1 [3-O-Acetate (Zytiga), reference compound] | o | – | – |
| C[C@]12CC[C@H](O[C@@H]3O[C@H](CO)[C@@H](O)[C@H](O)[C@H]3O)CC1=CCC1[C@@H]2CC[C@]2(C)C(c3cccnc3)=CC[C@@H]12 (stereo partly drawn) [3-O-β-Glucoside (33), 3-O-β-D-Glucopyranosyl-abiraterone, reference compound] | + (1.1-6-fold increase compared to Zytiga) | + (1-20%) | – |
| COc1cc(C)c2cc(O)c(C)cc2c1C(C)C [7-hydroxy-3-methoxy cadalene] | – | – | Reduction of tumor volume (xenograft mouse model): did not show tumor volume reduction |
| CN(CO[C@H]1CC[C@@]2(C)C(=CCC3[C@@H]2CC[C@]2(C)C(c4cccnc4)=CC[C@@H]32)C1)C(=O)O[C@@H]1O[C@H](CO)C(O)[C@H](O)C1O (stereo partly drawn) [Compound 7a] | – | +++ (41-50%) | – |
| CCN(CO[C@H]1CC[C@@]2(C)C(=CCC3[C@@H]2CC[C@]2(C)C(c4cccnc4)=CC[C@@H]32)C1)C(=O)O[C@@H]1O[C@H](CO)C(O)[C@H](O)C1O (stereo partly drawn) [Compound 7b] | + (1.1-6-fold increase compared to Zytiga) | ++++ (>51%) | – |
| CCCN(CO[C@H]1CC[C@@]2(C)C(=CCC3[C@@H]2CC[C@]2(C)C(c4cccnc4)=CC[C@@H]32)C1)C(=O)O[C@@H]1O[C@H](CO)C(O)[C@H](O)C1O (stereo partly drawn) [Compound 7c] | ++ (>7-fold increase compared to Zytiga) | +++ (41-50%) | Conversion to Abiraterone and Kalydeco, respectively, upon treatment with β-glucosidase (β-glucosidase): readily converted |
| C[C@]12CC[C@H](OCN(C(=O)O[C@@H]3O[C@H](CO)C(O)[C@H](O)C3O)C3CCC3)CC1=CCC1[C@@H]2CC[C@]2(C)C(c3cccnc3)=CC[C@@H]12 (stereo partly drawn) [Compound 7g] | ++ (>7-fold increase compared to Zytiga) | ++ (21-40%) | – |
| C=CCN(CO[C@H]1CC[C@@]2(C)C(=CCC3[C@@H]2CC[C@]2(C)C(c4cccnc4)=CC[C@@H]32)C1)C(=O)O[C@@H]1O[C@H](CO)C(O)[C@H](O)C1O (stereo partly drawn) [Compound 7l] | ++ (>7-fold increase compared to Zytiga) | +++ (41-50%) | – |
| CN(CO[C@H]1CC[C@@]2(C)C(=CCC3[C@@H]2CC[C@]2(C)C(c4cccnc4)=CC[C@@H]32)C1)C(=O)O[C@@H]1O[C@H](CO)C(O)[C@H](O)C1O (stereo partly drawn) [Compound 13] | ++ (>7-fold increase compared to Zytiga) | ++ (21-40%) | – |
| CCCN(COc1cc(NC(=O)c2c[nH]c3ccccc3c2=O)c(C(C)(C)C)cc1C(C)(C)C)C(=O)O[C@@H]1O[C@H](CO)[C@@H](O)[C@H](O)[C@H]1O [Compound 17] | – | – | Conversion rate to Kalydeco ([3]; AUClast Kalydeco/AUClast conjugate + AUClast Kalydeco × 100%, as Example 11): ++++ (>51%); AUClast (total amount Kalydeco and conjugate) [3]: + (1.1-6-fold increase compared to Kalydeco); Conversion to Abiraterone and Kalydeco, respectively, upon treatment with β-glucosidase (β-glucosidase): readily converted |
| CCCN(COc1cccc2c1CC[C@H](N(CCC)CCc1cccs1)C2)C(=O)O[C@@H]1O[C@H](CO)[C@@H](O)[C@H](O)[C@H]1O [Compound 28] | – | – | Conversion rate to Rotigotine ([4]; AUClast Rotigotine/(AUClast conjugate + AUClast Rotigotine) × 100%, as Example 11): ++++ (>51%); AUClast (total amount Rotigotine and conjugate) [4]: ++ (>6-fold increase compared to Rotigotine) |
| CC(C)(C)c1cc(C(C)(C)C)c(NC(=O)c2c[nH]c3ccccc3c2=O)cc1O [Kalydeco, reference compound] | – | – | AUClast (total amount Kalydeco and conjugate) [3]: o |
| CCCN(CCc1cccs1)[C@H]1CCc2c(O)cccc2C1 [Rotigotine, reference compound] | – | – | AUClast (total amount Rotigotine and conjugate) [4]: o |
| C[C@@H]1C[C@H]2[C@@H]3CCC4=CC(=O)C=C[C@]4(C)[C@@]3(F)[C@@H](O)C[C@]2(C)[C@@]1(O)C(=O)COC1O[C@H](CO)[C@@H](O)[C@H](O)[C@H]1O (stereo partly drawn) [dexamethasone glucoside] | – | – | Fraction of oral dose that reached the caecum as a free steroid [5]: ~60% |
| C[C@]12C=CC(=O)C=C1CC[C@@H]1[C@@H]2[C@@H](O)C[C@@]2(C)[C@H]1CC[C@]2(O)C(=O)CO[C@@H]1O[C@H](CO)[C@@H](O)[C@H](O)[C@H]1O [prednisolone-21-O-β-D-glucoside] | – | – | Increase of serum levels with respect to prednisolone [6]: two-fold increase |
